# Data taken from patent publication US12252472B1, “Barbituric acid derivatives, their preparation and use thereof as leukocyte transmigration inhibitors and for treating inflammatory diseases, autoimmune diseases and cancer” (BAR-ILAN UNIVERSITY, priority 2017, dated 2025).
# Legend:
# [1] = system: mouse monocytes / macrophages from the abdominal cavity; assay: Ten-color flow cytometry (CD115, F4/80) of peritoneal cells from the peritonitis model; format: in vivo
# Description: After inducing the inflammation (peritonitis), compound of Formula 2 was injected at a concentration of 12.5 mg/kg (DMSO, 01% in PBS, IP), twice (one day after the other). The next day, mice were sacrificed and the peritoneal liquid was collected from the control and treated mice (n=3 for each group). Two assays were conducted for the estimation of the possible anti-inflammatory effect of compound of Formula 2: leukocyte counting (the total amount and the calculation of the percentage of different leukocyte fractions) and a flow cytometry.
# Flow cytometry based on a fluorescent protein marker (CD115) was selected for the analysis. It is generated by monocytes and localized to their plasma membrane as described by Yang, J. et al. (Monocyte and macrophage differentiation: circulation inflammatory monocyte as biomarker for inflammatory diseases. Biomark Res, 2014. 2(1): p. 1). This protein is able to specifically recognize and bind a F4/80 antibody that activates the immune system macrophages (Lin, H. H., et al., The macrophage F4/80 receptor is required for the induction of antigen-specific efferent regulatory T cells in peripheral tolerance. Journal of Experimental Medicine, 2005. 201(10): p. 1615-1625).
# Cell viability before the FACS experiment was assessed by incubation in the amine-reactive dye Aqua (Invitrogen) (1:500) dilution in Ca^2+ and Mg^2+-free PBS) for 30 minutes in the dark at room temperature (RT), followed by a single wash in PBS. For all experiments, cells were incubated in 0.5 μg Fc Block (BD Biosciences) for 10 minutes at room temperature (RT). Surface staining was performed in the dark for 30 minutes at 4° C. in staining buffer. A surface marker (CD115, APC clone AFS98, in dilution 1:100, from eBioscience) was used. […] Fluorescence minus one (FMO) controls were used for gating analyses to distinguish positively from negatively staining cell populations. […] Compensation matrices were calculated and applied using FlowJo software (Tree Star). […]
# C57BL/6J mice = assay: Acute toxicology in naive mice (blood counts, biochemical tests, histology); format: in vivo, mouse
# Description: 1% methyl cellulose in DDW solution was prepared by adding 0.5 g methyl cellulose into 50 ml of DDW and stirring the solution at the lowest possible speed (without making bubbles) overnight at room temperature. Formula 2 stock solution was prepared in concertation of 20 mg/ml at room temperature following shown below order of actions: • 1. 30 mg of the compound of Formula 2 was placed in the glass vial together with small magnet. • 2. 1.5 ml of 1% methylcellulose was added by circular (swirled) movement very slow. The entire surface of the vial was gently covered by the solvent and powder was not allowed to float above the liquid. • 3. The resulting suspension was stirred at the lowest possible speed up to 48 hours at room temperature. • 4. Intermediate Formula 2 stock solution at 10 mg/ml concentration was prepared by diluting 20 mg/ml stock solution 1:1 (v/v) with equal amount of DDW. DDW was added to the Formula 2 stock solution. The obtained suspension was stirred at the lowest possible speed for another hour at room temperature. • 5. Formula 2 working solution at 3 mg/ml was prepared by diluting intermediate stock solution (v/v) with DDW accordingly. The working suspension of Formula 2 was stirred at the low speed (˜80-100 rpm) for 30 minutes to 1 hour prior to use in animal experiments.
# Eight experimental groups with 5 female 6-7 weeks old C57BL/6J mice each and one control group non treated (naïve) mice were used for the experiment. Mice were administered with daily application of the working suspension of the compound of Formula 2, prepared as described hereinabove, at 5, 10 and 15 mg/kg by intraperitoneal injection (IP) or at 10, 20 and 30 mg/kg by oral gavage (PO). […] Mice from all groups were euthanized with isoflurane 24 hours post last dose administration. Sampling for whole blood counts (WBC) and white blood differentiation: 200 μl of whole blood were collected into EDTA tubes (Greiner MiniCollect K3EDTA tubes). For comprehensive metabolic panel the rest of the whole blood (300-400 μl) was collected for the serum preparation. All blood tests were conducted in American Medical Labs, Herzeliah, Israel. Liver, spleen, lungs, heart and kidneys were collected from each mouse placed to vials with 4% buffered formalin following paraffin embedding and sectioning. Sections from each organ of each animal were stained with H&E and histological evaluation of the tissue was performed.
# [2] = abdominal cavity, treated vs non-treated mice, FACS
# [3] = 5, 10, 15 mg/kg IP or 10, 20, 30 mg/kg PO, daily
compound,measurement,setting,value
"COC(=O)c1ccc(COc2c(C=C3C(=O)NC(=O)NC3=O)cccc2C(C)(C)C)cc1 [Formula 2, methyl 4-((2-(tert-butyl)-6-((2,4,6-trioxotetrahydropyrimidin-5(2H)-ylidene)methyl)phenoxy)methyl) benzoate]","monocyte phenotype, CD115 expression (shift in pattern of gates 1-4)",[1]; C57BL/6 mouse monocytes,reduced differentiation
same,amount of activated (high macrophages),[1]; [2],considerably decreased
same,level of non-activated (low macrophage),[1]; [2],elevated
same,"microstructure of lungs, heart, liver, spleen and kidney tissues",C57BL/6J mice; 3 doses IP,no effect
same,"microstructure of lungs, heart, liver, spleen and kidney tissues",C57BL/6J mice; 3 doses PO,no effect
same,"blood levels of calcium, phosphorus, sodium, potassium, chloride and hemolytic index","C57BL/6J mice; 3 doses PO or 3 doses IP, n=5",no effect
same,"blood levels of creatinine, urea, total protein, albumin, globulin, glucose","C57BL/6J mice; 3 doses PO or 3 doses IP, n=5",no effect
same,"blood levels of total billirubin, alkaline phosphatase, SGOT, SGPT and cholesterol","C57BL/6J mice; 3 doses PO or 3 doses IP, n=5",no effect
same,"different subtypes of red blood cells, platelets and hematocrit","C57BL/6J mice; 3 doses PO or 3 doses IP, n=5",no effect
same,different subtypes of white blood cells,"C57BL/6J mice; 3 doses PO or 3 doses IP, n=5",no effect
same,tested metabolic values,C57BL/6J mice; [3],in normal range
same,whole blood counts and white cells differentiation,C57BL/6J mice; [3],no significant changes
same,"tissues morphology, microscopic evaluation","C57BL/6J mice; liver, spleen, lungs, heart, kidneys, IP and PO",no changes
